From PMC6899670 (The Febs Journal, 2019) come the findings set out here.

The target in assay [1] is T1, BpDdl (Burkholderia pseudomallei D-alanine-D-alanine ligase) (Burkholderia pseudomallei, UniProt Q63QJ9).
T1 construct: gene ddl
The settings on record: substrate inhibition at high ATP; 10 mM D-Ala, pH 8, 10 mM MgCl2, 100 mM KCl, 30 °C; enzyme co-purified with AMP.

The target of assay [2] is T1, BpDdl (Burkholderia pseudomallei D-alanine-D-alanine ligase). Briefly: biochemical.
For assay [3] the target is unchanged. Briefly: biochemical. This is another data set of the same source.

Usually Ki stands for a measure of affinity in units of concentration, obtained from inhibition or displacement. High values mean lower affinity, low ones higher affinity.

SMILES strings stand for the structures. Where two headings read alike, the source gives them in different places.

T1 sequence (Q63QJ9 whole entry, looked up): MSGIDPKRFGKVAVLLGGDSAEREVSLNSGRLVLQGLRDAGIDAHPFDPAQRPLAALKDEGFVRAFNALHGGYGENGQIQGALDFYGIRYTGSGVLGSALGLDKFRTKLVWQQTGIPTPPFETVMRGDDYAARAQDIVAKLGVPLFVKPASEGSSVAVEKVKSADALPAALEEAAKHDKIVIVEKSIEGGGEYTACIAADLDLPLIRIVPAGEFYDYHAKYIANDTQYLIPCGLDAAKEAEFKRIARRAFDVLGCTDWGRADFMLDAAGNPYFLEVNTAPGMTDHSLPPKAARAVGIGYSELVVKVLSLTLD

Consider `Nc1ncnc2c1ncn2[C@@H]1O[C@H](COP(=O)(O)OP(=O)(O)OP(=O)(O)O)[C@@H](O)[C@H]1O` [ATP], for which the “K i,ATP” value in assay [1] is listed as 3.16 ± 0.59 mM.

For the compound `CC(=O)NCc1ccccc1Cl` [compound identified in the fragment screen], the affinity in assay [2] corresponds to a Ki of 10 mM.

The compound `N[C@@H]1CON=C1O` [DCS] showed an inhibition constant (Ki) in assay [3] of 0.1 mM.
